Data published in PubChem BioAssay AID2060332 (Molecular Pharmacology Branch, DTP, NCI, 2025).
Several values for one entry are separate records, joined by “and”; a condition that tells them apart may be missing. Equal values may be shown once.

System: LG0567-F671-PDC multi-cell spheroid viability
Experiment: Anticancer human tumor LG0567-F671-PDC patient-derived lung adenocarcinoma cell line growth inhibition [IpAb]
Conditions: for viability, T/C: stronger effect = lower value
Method in brief: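 Multi-cell spheroids of 60% tumour cells, 25% HUVEC and 15% MSC in ultra-low-attachment U-bottom wells, treated with agents combined with ipatasertib or abemaciclib. Half-log ranges top out near clinical Cmax, or 10 microM when Cmax is unknown.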

[1] = curve of first compound, second compound 0.1 µM
[2] = curve of first compound, second compound 0.316 µM
[3] = curve of first compound, second compound 1 µM
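Also: viability read after 7 days of drug exposure.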
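For viability, T/C in this document: 100% = DMSO vehicle control luminescence.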

Cn1cnc2c(F)c(Nc3ccc(Br)cc3Cl)c(C(=O)NOCCO)cc21 + CC(C)NCC(C(=O)N1CCN(c2ncnc3c2C(C)CC3O)CC1)c1ccc(Cl)cc1
IC50 [1]: 15.7 nM
IC50 [2]: < 9.49 nM
IC50 [3]: < 9.49 nM
IC50 (curve of first compound, second compound 3.16 µM): < 9.49 nM
IC50 (curve of first compound, second compound 10 µM): < 9.49 nM
viability, T/C (second compound 0.1 µM, first compound 0.00949 µM): 59.6%
viability, T/C (second compound 0.1 µM, first compound 0.03 µM): 36.4%
viability, T/C (second compound 0.1 µM, first compound 0.0949 µM): 29.3%
viability, T/C (second compound 0.1 µM, first compound 0.3 µM): 18.2%
viability, T/C (second compound 0.1 µM, first compound 0.949 µM): 18.6%
viability, T/C (second compound 0.1 µM, first compound 3 µM): 11.1%
viability, T/C (second compound 0.316 µM, first compound 0.00949 µM): 43.4%
viability, T/C (second compound 0.316 µM, first compound 0.03 µM): 32.4%
viability, T/C (second compound 0.316 µM, first compound 0.0949 µM): 23.2%
viability, T/C (second compound 0.316 µM, first compound 0.3 µM): 18%
viability, T/C (second compound 0.316 µM, first compound 0.949 µM): 14.3%
viability, T/C (second compound 0.316 µM, first compound 3 µM): 5.52%
viability, T/C (second compound 1 µM, first compound 0.00949 µM): 34.6%
viability, T/C (second compound 1 µM, first compound 0.03 µM): 32.3%
viability, T/C (second compound 1 µM, first compound 0.0949 µM): 23.9%
viability, T/C (second compound 1 µM, first compound 0.3 µM): 21.3%
viability, T/C (second compound 1 µM, first compound 0.949 µM): 10.7%
viability, T/C (second compound 1 µM, first compound 3 µM): 8.24%
viability, T/C (second compound 3.16 µM, first compound 0.00949 µM): 44.9%
viability, T/C (second compound 3.16 µM, first compound 0.03 µM): 43.4%
viability, T/C (second compound 3.16 µM, first compound 0.0949 µM): 36.4%
viability, T/C (second compound 3.16 µM, first compound 0.3 µM): 16.4%
viability, T/C (second compound 3.16 µM, first compound 0.949 µM): 14.8%
viability, T/C (second compound 3.16 µM, first compound 3 µM): 7.66%
viability, T/C (second compound 10 µM, first compound 0.00949 µM): 43.4%
viability, T/C (second compound 10 µM, first compound 0.03 µM): 28.7%
viability, T/C (second compound 10 µM, first compound 0.0949 µM): 26.7%
viability, T/C (second compound 10 µM, first compound 0.3 µM): 21.5%
viability, T/C (second compound 10 µM, first compound 0.949 µM): 11.9%
viability, T/C (second compound 10 µM, first compound 3 µM): 8.12%

CCCS(=O)(=O)Nc1ccc(F)c(C(=O)c2c[nH]c3ncc(-c4ccc(Cl)cc4)cc23)c1F + CCN1CCN(Cc2ccc(Nc3ncc(F)c(-c4cc(F)c5nc(C)n(C(C)C)c5c4)n3)nc2)CC1
IC50 (curve of first compound, second compound 0.01 µM): > 10000 nM
IC50 (curve of first compound, second compound 0.0316 µM): > 10000 nM
IC50 [1]: > 10000 nM
IC50 [2]: > 10000 nM
IC50 [3]: > 10000 nM
viability, T/C (second compound 0.01 µM, first compound 0.0316 µM): 104%
viability, T/C (second compound 0.01 µM, first compound 0.1 µM): 140%
viability, T/C (second compound 0.01 µM, first compound 0.316 µM): 112%
viability, T/C (second compound 0.01 µM, first compound 1 µM): 145%
viability, T/C (second compound 0.01 µM, first compound 3.16 µM): 169%
viability, T/C (second compound 0.01 µM, first compound 10 µM): 168%
viability, T/C (second compound 0.0316 µM, first compound 0.0316 µM): 93.3%
viability, T/C (second compound 0.0316 µM, first compound 0.1 µM): 105%
viability, T/C (second compound 0.0316 µM, first compound 0.316 µM): 140%
viability, T/C (second compound 0.0316 µM, first compound 1 µM): 121%
viability, T/C (second compound 0.0316 µM, first compound 3.16 µM): 156%
viability, T/C (second compound 0.0316 µM, first compound 10 µM): 115%
viability, T/C (second compound 0.1 µM, first compound 0.0316 µM): 77.4%
viability, T/C (second compound 0.1 µM, first compound 0.1 µM): 98.8%
viability, T/C (second compound 0.1 µM, first compound 0.316 µM): 91.6%
viability, T/C (second compound 0.1 µM, first compound 1 µM): 113%
viability, T/C (second compound 0.1 µM, first compound 3.16 µM): 154%
viability, T/C (second compound 0.1 µM, first compound 10 µM): 92.1%
viability, T/C (second compound 0.316 µM, first compound 0.0316 µM): 68.8%
viability, T/C (second compound 0.316 µM, first compound 0.1 µM): 86.3%
viability, T/C (second compound 0.316 µM, first compound 0.316 µM): 91.7%
viability, T/C (second compound 0.316 µM, first compound 1 µM): 108%
viability, T/C (second compound 0.316 µM, first compound 3.16 µM): 80.1%
viability, T/C (second compound 0.316 µM, first compound 10 µM): 55.4%
viability, T/C (second compound 1 µM, first compound 0.0316 µM): 66.9%
viability, T/C (second compound 1 µM, first compound 0.1 µM): 88.3%
viability, T/C (second compound 1 µM, first compound 0.316 µM): 73.7%
viability, T/C (second compound 1 µM, first compound 1 µM): 70.4%
viability, T/C (second compound 1 µM, first compound 3.16 µM): 76.9%
viability, T/C (second compound 1 µM, first compound 10 µM): 65.1%

Cn1nccc1Nc1nccc(-c2ccn(C(CO)c3ccc(Cl)c(F)c3)c(=O)c2)n1 (configuration not stated)
viability, T/C (compound 0.0316 µM): 96.4% and 76.2%
viability, T/C (compound 0.1 µM): 50.8% and 58.4%
viability, T/C (compound 0.316 µM): 45% and 40.1%
viability, T/C (compound 1 µM): 41.1% and 29.3%
viability, T/C (compound 3.16 µM): 33.5% and 35.7%
viability, T/C (compound 10 µM): 36.3% and 34.5%
IC50 (curve of compound): 138 nM and 166 nM
